Results on one molecule are retold here after article PMC9148072, “Design, Cytotoxicity and Antiproliferative Activity of 4-Amino-5-methyl-thieno[2,3-d]pyrimidine-6-carboxylates against MFC-7 and MDA-MB-231 Breast Cancer Cell Lines” (Molecules, 2022).

Where two headings read alike, the source gives them in different places.

One series concerns MCF-10A cell line. The experiment in a line: MTT antiproliferative assay, MCF-10A. To be noted: Homo sapiens, 72 h. Type of series: cell-based. Here is the method: (§1) The compounds were studied for antiproliferative activity by standard MTT dye-reduction assay. Cell cultures from MCF-10A, MCF-7 and MDAMB-231 cell lines were incubated for 72 h in the presence of the tested substances in a wide range of concentrations. At the MCF-10A and MDA-MB-231 cell lines, compound 4 was applied in the range from 0.5 to 100 µg/mL, and all others from 4 to 1000 µg/mL.
In order to determine antitumor activity, as a reliable model and a control we used the MCF-10A cell line (normal human mammary epithelial cells).
(§2) All breast cell lines (MCF-10A, MCF-7 and MDA-MB-231) were purchased from the American Type Culture Collection—ATCC (Manassas, VA, USA). The MCF-7 and MDA-MB-231 were cultivated in Dulbecco’s Modified Eagle’s Medium (DMEM) supplemented with 10% fetal bovine serum (FBS), 1% sodium pyruvate, 1% MEM nonessential amino acids (NEAA) without antibiotics. The nontumorigenic breast cell line (MCF-10A) was cultivated in DMEM medium (Sigma-Aldrich, St. Louis, MO, USA) supplemented with 10% FBS, 1% sodium pyruvate, 1% nonessential amino acids (NEAA), 20 ng/mL human epithelia growth factor (hEGF), 10 μg/mL insulin, and 0.5 μg/mL hydrocortisone without antibiotics. All cell lines were maintained in a humidified atmosphere with 5% CO2 at 37 °C.
(§3) Using the standard MTT dye-reduction assay, described by Mosmann the antiproliferative activity was tested. The method is based on the metabolism of the tetrazolium salt MTT to insoluble formazan. The formazan absorption was registered using a microplate reader at λ = 540 nm. The measured absorption is an indicator of cell viability and metabolic activity. Antiproliferative activities were expressed as IC50 values (concentrations required for 50% inhibition of cell growth), calculated using nonlinear regression analysis (GraphPad Software, San Diego, CA, USA).
In general terms: Tetrazolium dyes change colour on reduction, which living cells bring about.

The nature of series [1]: 3T3 Neutral Red Uptake (NRU) cytotoxicity test. Format: cell-based, mouse. The settings on record: mouse, BALB/3T3 clone A31 cells.
Another series deals with BALB 3T3 cells. In words: 3T3 Neutral Red Uptake (NRU) cytotoxicity test. Type of series: cell-based, mouse. The settings on record: BALB 3T3, 15 to 4000 µg/mL, 24 h.
In another series the test system is MDA-MB-231 cell line. The experiment in a line: MTT antiproliferative assay, MDA-MB-231. Type of series: cell-based, human. The settings on record: for IC50: Homo sapiens, MDA-MB-231, 72 h, MTT. On the procedure:
as §1, §2, §3

A further series concerns MCF-7 cell line. In words: MTT antiproliferative assay, MCF-7. Format: cell-based, human. The settings on record: for IC50: Homo sapiens, MCF7, MCF-7, 72 h, MTT. On the procedure:
as §1
The MCF-7 cell line was treated with compounds 2, 3 and 4 at concentrations from 0.5 to 100 µg/mL, and all others from 4 to 1000 µg/mL. The antiproliferative activity expressed in % relative to the negative control (untreated cells accepted as a 100% viable or 0% antiproliferative activity) was determined and shown on Figure 6.
as §2, §3

Regarding `CCOC(=O)c1sc2nc(-c3ccncc3)nc(N)c2c1C.Cl` [Compound 6, Ethyl 4-Amino-5-methyl-2-(pyridin-4-yl)thieno[2,3-d]pyrimidine-6-carboxylate hydrochloride], the melting point lay within 259 to 261 °C. The IC50 in the series on MCF-10A cell line (read-out: IC50 Antiproliferative Activity MCF-10A (converted)) is 1310 µM. Further, the IC50 in the series on MCF-10A cell line (read-out: IC50 ± SD Antiproliferative Activity MCF-10A) amounted to 411 ± 5.1 µg/mL. Besides, in series [1] (BALB 3T3, 24 h, no irradiation, read-out: CC50 of Mean ± SD, Cytotoxicity), the CC50 at 24 h is above 4000 µg/mL. Besides, the IC50 at 24 h in series [1] (BALB 3T3, converted from µg/mL, read-out: IC50 cytotoxicity against BALB 3T3) was above 13000 µM. In the series with BALB 3T3 cells, the “cytotoxicity versus BALB 3T3 cells (in words)” value is listed as “not cytotoxic”. Moreover, in the series with MDA-MB-231 cell line (read-out: IC50 Antiproliferative Activity MDA-MB-231 in µM (converted)), the IC50 was 370 µM. Besides, the IC50 in the series on MDA-MB-231 cell line (read-out: IC50 ± SD Antiproliferative Activity MDA-MB-231) came out at 116 ± 9.63 µg/mL. In addition, the “Selective Index MDA-MB-231” value in the series on MDA-MB-231 cell line (SI = IC50 of MCF-10A/IC50 of MDA-MB-231) amounted to 3.54. Moreover, the IC50 with MCF-7 cell line (read-out: IC50 Antiproliferative Activity MCF-7 in µM (converted)) was 1410 µM. Also, the IC50 in the series on MCF-7 cell line (read-out: IC50 ± SD Antiproliferative Activity MCF-7) amounted to 444 ± 9.2 µg/mL. For the same molecule, the “Selective Index MCF-7” value in the series on MCF-7 cell line (SI = IC50 of MCF-10A/IC50 of MCF-7) is 0.92.

One may read the IC50 as the concentration that gives 50% inhibition. By CC50 is commonly meant the concentration that lowers cell viability or growth by half. As usually defined, the melting point is the temperature, or range, at which the solid turns liquid.
